Measurements reported in patent US20260001889A1, “COMPOSITIONS USEFUL FOR MODULATING SPLICING” (Skyhawk Therapeutics, Inc., priority 2022, published 2026).

How the values were obtained:
[1] = tested on: ATXN3 transcripts containing exon 4; assay: ATXN3 Quantitative Splicing Assay (qPCR, E4E5 primers/probe); type: cell-based; details: Homo sapiens, SK-N-MC cells, compounds for 24 h
Procedure, shortened: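 Exon 4-containing ATXN3 transcripts are quantified by TaqMan qPCR (E4E5 primers/probe) on cell-lysate cDNA, with total ATXN3 from the E8E9 set. Source cells: human neuroblastoma SK-N-MC, exposed for 24 h to compound at 30 μM down to 0.6 nM.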

total ATXN3 protein = assay: ATXN3 Total Protein Assay (Mesoscale Discovery, SK-N-MC cells); type: cell-based, Human; details: incubation for 48 hours, MSD assay
Protocol: Example 35: ATXN3 Total Protein Assay
Human neuroblastoma SK-N-MC cells were seeded at 10,000 cells/well in 384 well plates one day prior to compound treatment. The concentrations of compounds were tested at appropriate doses ranging from 30 μM to 0.6 nM. After incubation for 48 hours, the cells were lysed with 25 μL of lysis buffer containing protease inhibitors, and total ATXN3 protein levels were assessed by Mesoscale Discovery (MSD) assay developed with one pair of anti-ATXN3 antibodies. The capture and detect antibodies were raised in mouse and rabbit respectively. Anti-rabbit MSD-ST antibody was used for secondary antibody.
ATXN3 recombinant protein was used for standards. The readouts were captured with 35 μL of MSD read buffer and multi-array 384-well high binding plates.

ATXN3-HiBiT protein = assay: ATXN3 Total Protein Assay (Kelly-ATXN3-HiBiT luminescence); type: cell-based; details: Kelly-ATXN3-HiBiT cells, 48 h after addition of compound
Procedure, shortened: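 Endogenous ATXN3-HiBiT protein in knock-in Kelly neuroblastoma cells measured by lytic HiBiT luminescence 48 h post-compound (added 24 h after seeding 2000 cells/well). Values are fold changes relative to DMSO, with viability from a parallel CellTiter-Glo plate.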

| IC50 [1] [nM] | IC50 (total ATXN3 protein) [nM] | EC50 (ATXN3-HiBiT protein) [nM] | Compound |
| --- | --- | --- | --- |
| 0.01 to 100 | 0.01 to 100 | 0.01 to 100 | C#CC[C@H](N)Cc1oc2c(NCc3cccs3)cc(Cl)nc2c1Br [Compound 77, 2-[(S)-2-amino-4-pentynyl]-3-bromo-5-chloro-7-thenylamino-1-oxa-4-azaindene] |
| 501 to 5000 | 501 to 5000 | 501 to 5000 | COC[C@H](N)C(F)(F)c1oc2c(NCc3cccs3)cc(Cl)nc2c1Br [Compound 193, 2-[(S)-2-amino-1,1-difluoro-3-methoxypropyl]-3-bromo-5-chloro-7-thenylamino-1-oxa-4-azaindene] |
| 101 to 500 | 101 to 500 | 101 to 500 | C[C@H](F)[C@H](N)Cc1oc2c(NCc3ccccc3)cc(Cl)nc2c1Cl [Compound 110, 2-[(2R,3S)-2-amino-3-fluorobutyl]-7-benzylamino-3,5-dichloro-1-oxa-4-azaindene] |
| 101 to 500 | 0.01 to 100 | 0.01 to 100 | N[C@@H](CCO)Cc1oc2c(NCc3cccs3)cc(Cl)nc2c1Br [Compound 131, (S)-3-amino-4-(3-bromo-5-chloro-7-thenylamino-1-oxa-4-aza-2-indenyl)-1-butanol] |
| 0.01 to 100 | 0.01 to 100 | 0.01 to 100 | N[C@@H](COC(F)F)Cc1oc2c(NCc3cccs3)cc(Cl)nc2c1Br [Compound 117, 2-[(R)-2-amino-3-difluoromethoxypropyl]-3-bromo-5-chloro-7-thenylamino-1-oxa-4-azaindene] |
| 501 to 5000 | 501 to 5000 | 5000 to 10000 | C[C@H](F)[C@H](N)Cc1oc2c(NCc3cccs3)cc(Cl)nc2c1-c1ccn(C)n1 [Compound 333, 2-[(2R,3S)-2-amino-3-fluorobutyl]-5-chloro-3-(1-methyl-3-pyrazolyl)-7-thenylamino-1-oxa-4-azaindene] |
| 501 to 5000 | 501 to 5000 | 501 to 5000 | N[C@H](Cc1oc2c(NCc3cccs3)cc(Cl)nc2c1Br)C1COC1 [Compound 98, 2-[(R)-2-amino-2-(3-oxetanyl)ethyl]-3-bromo-5-chloro-7-thenylamino-1-oxa-4-azaindene] |
| 101 to 500 | 101 to 500 | 101 to 500 | C[C@@H](F)[C@H](N)Cc1oc2c(NCc3cccs3)cc(Cl)nc2c1Br [Compound 44, 2-[(2R,3R)-2-amino-3-fluorobutyl]-3-bromo-5-chloro-7-thenylamino-1-oxa-4-azaindene] |
| 0.01 to 100 | 0.01 to 100 | 101 to 500 | C[C@H](F)[C@H](N)Cc1oc2c(NCc3ccncc3)cc(Cl)nc2c1Br [Compound 119, 2-[(2R,3S)-2-amino-3-fluorobutyl]-3-bromo-5-chloro-7-{[(4-pyridyl)methyl]amino}-1-oxa-4-azaindene] |
| 10000 to 40000 | 5000 to 10000 | 10000 to 40000 | C[C@H](F)[C@H](N)Cc1oc2c(NCc3cccs3)cc(Cl)nc2c1C#N [Compound 237, 2-[(2R,3S)-2-amino-3-fluorobutyl]-5-chloro-7-[(thiophen-2-ylmethyl)amino]furo[3,2-b]pyridine-3-carbonitrile] |
| 0.01 to 100 | 0.01 to 100 | 0.01 to 100 | C[C@H](F)[C@H](N)Cc1oc2c(NCc3nccs3)cc(Cl)nc2c1Br [Compound 90, 2-[(2R,3S)-2-amino-3-fluorobutyl]-3-bromo-5-chloro-7-{[(1,3-thiazol-2-yl)methyl]amino}-1-oxa-4-azaindene] |
| 501 to 5000 | 501 to 5000 | 501 to 5000 | C[C@H](F)[C@H](N)Cc1oc2c(NCc3cccs3)cc(Cl)nc2c1C1CC1 [Compound 240, 2-[(2R,3S)-2-amino-3-fluorobutyl]-5-chloro-3-cyclopropyl-7-thenylamino-1-oxa-4-azaindene] |
| 501 to 5000 | 501 to 5000 | 501 to 5000 | C[C@@H](F)[C@H](N)Cc1oc2c(NCc3ccc(F)s3)cc(Cl)nc2c1Br [Compound 95, 2-[(2R,3R)-2-amino-3-fluorobutyl]-3-bromo-5-chloro-7-{[(5-fluoro-2-thienyl)methyl]amino}-1-oxa-4-azaindene] |
| 501 to 5000 | 501 to 5000 | 101 to 500 | CC#C[C@@H](Cc1oc2c(NCc3cccs3)cc(Cl)nc2c1Br)NC [Compound 295, 3-bromo-5-chloro-2-[(2R)-2-(methylamino)pent-3-yn-1-yl]-N-(thiophen-2-ylmethyl)furo[3,2-b]pyridin-7-amine] |
| 501 to 5000 | 501 to 5000 | 501 to 5000 | C[C@H](F)[C@H](N)Cc1oc2c(NCc3cccs3)cc(Cl)nc2c1-c1ccco1 [Compound 331, 2-[(2R,3S)-2-amino-3-fluorobutyl]-5-chloro-3-(2-furyl)-7-thenylamino-1-oxa-4-azaindene] |
| 101 to 500 | 101 to 500 | 101 to 500 | C[C@H](F)[C@H](N)Cc1oc2c(NCc3ccc(F)s3)cc(Cl)nc2c1Cl [Compound 108, 2-[(2R,3S)-2-amino-3-fluorobutyl]-3,5-dichloro-7-{[(5-fluoro-2-thienyl)methyl]amino}-1-oxa-4-azaindene] |
| 0.01 to 100 | 0.01 to 100 | 0.01 to 100 | [2H]C([2H])([2H])OC[C@H](N)Cc1oc2c(NCc3cccs3)cc(Cl)nc2c1Br [Compound 157, 2-[(R)-2-amino-3-(2H3)methoxypropyl]-3-bromo-5-chloro-7-thenylamino-1-oxa-4-azaindene] |
| 0.01 to 100 | 0.01 to 100 | 0.01 to 100 | N[C@@H](CO)Cc1oc2c(NCc3ccco3)cc(Cl)nc2c1Br [Compound 22, (R)-2-amino-3-[3-bromo-5-chloro-7-(furfurylamino)-1-oxa-4-aza-2-indenyl]-1-propanol] |
| 101 to 500 | 101 to 500 | 101 to 500 | C[C@H](F)[C@H](N)Cc1oc2c(NCc3ccncc3F)cc(Cl)nc2c1Cl [Compound 149, 2-[(2R,3S)-2-amino-3-fluorobutyl]-3,5-dichloro-7-{[(3-fluoro-4-pyridyl)methyl]amino}-1-oxa-4-azaindene] |
| 101 to 500 | 101 to 500 | 0.01 to 100 | C[C@H](F)[C@H](N)Cc1oc2c(NCc3cccs3)cc(Cl)nc2c1-c1ncco1 [Compound 312, 2-[(2R,3S)-2-amino-3-fluorobutyl]-5-chloro-3-(1,3-oxazol-2-yl)-7-thenylamino-1-oxa-4-azaindene] |

| Compound | IC50 [1] [nM] | IC50 (total ATXN3 protein) [nM] | EC50 (ATXN3-HiBiT protein) [nM] |
| --- | --- | --- | --- |
| C#Cc1c(C[C@H](C)N)oc2c(NCc3cccs3)c(F)c(Cl)nc12 [Compound 276, 2-[(S)-2-aminopropyl]-5-chloro-3-ethynyl-6-fluoro-7-thenylamino-1-oxa-4-azaindene] | 501 to 5000 | 501 to 5000 | 501 to 5000 |
| C[C@H](N)Cc1oc2c(NCc3cccs3)cc(Cl)nc2c1-c1ccco1 [Compound 311, 2-[(S)-2-aminopropyl]-5-chloro-3-(2-furyl)-7-thenylamino-1-oxa-4-azaindene] | 501 to 5000 | 5000 to 10000 | 501 to 5000 |
| C[C@H](N)Cc1oc2c(NCc3cccs3)c(F)c(Cl)nc2c1Br [Compound 275, 2-[(S)-2-aminopropyl]-3-bromo-5-chloro-6-fluoro-7-thenylamino-1-oxa-4-azaindene] | 501 to 5000 | 501 to 5000 | 501 to 5000 |
| CC#Cc1cc(NCc2cccs2)c2oc(C[C@H](C)N)c(Br)c2n1 [Compound 160, 2-[(S)-2-aminopropyl]-3-bromo-5-(1-propynyl)-7-thenylamino-1-oxa-4-azaindene] | 501 to 5000 | 101 to 500 | 101 to 500 |
| C/C=C/c1c(C[C@H](C)N)oc2c(NCc3cccs3)cc(Cl)nc12 [Compound 253, 3-[(E)-1-propenyl]-2-[(S)-2-aminopropyl]-5-chloro-7-thenylamino-1-oxa-4-azaindene] | 501 to 5000 | 501 to 5000 | 10000 to 40000 |
| C[C@H](N)Cc1oc2c(NCc3ccco3)cc(Cl)nc2c1C#N [Compound 238, 2-[(S)-2-aminopropyl]-5-chloro-7-(furfurylamino)-1-oxa-4-aza-3-indenecarbonitrile] | 10000 to 40000 | 10000 to 40000 | 10000 to 40000 |
| C[C@H](N)Cc1oc2c(NCc3cccs3)cc(Cl)nc2c1-c1cccs1 [Compound 256, 2-[(S)-2-aminopropyl]-5-chloro-7-thenylamino-3-(2-thienyl)-1-oxa-4-azaindene] | 10000 to 40000 | 5000 to 10000 | 10000 to 40000 |
| C[C@H](N)Cc1oc2c(NCc3cccs3)cc(Cl)nc2c1-c1ncc[nH]1 [Compound 313, 2-[(2S)-2-aminopropyl]-5-chloro-3-(1H-imidazol-2-yl)-N-(thiophen-2-ylmethyl)furo[3,2-b]pyridin-7-amine] | 10000 to 40000 | 5000 to 10000 | 10000 to 40000 |
| C[C@H](N)Cc1oc2c(NCc3cccs3)cc(C#N)nc2c1Br [Compound 35, 2-[(S)-2-aminopropyl]-3-bromo-7-thenylamino-1-oxa-4-aza-5-indenecarbonitrile] | 101 to 500 | 101 to 500 | 101 to 500 |
| C=C(C)c1c(C[C@H](C)N)oc2c(NCc3cccs3)cc(Cl)nc12 [Compound 252, 2-[(S)-2-aminopropyl]-5-chloro-3-isopropenyl-7-thenylamino-1-oxa-4-azaindene] | 10000 to 40000 | 5000 to 10000 | 501 to 5000 |
